Where two headings read alike, the source gives them in different places.

For experiment [1], the system named is Human breast cancer cell line T-47D. As to the kind of experiment: Caspase cascade activation assay (N-(Ac-DEVD)-N'-ethoxycarbonyl-R110 fluorogenic substrate) in T-47D cells. The format is cell-based. Particulars: for Caspase activity (Ratio) T-47D: 24 h incubation with compound, ratio of net RFU (T=3 h) of test compound to control; for EC50: 24 h incubation, sigmoidal dose-response, read-out: Caspase potency EC50 (nM) T-47D. In short, it runs like this: (§1)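 Cells were exposed for 24 h at 37 °C to test compound at 0.016–1 μM final. Lysed with lysolecithin buffer (pH 7.2, DTT) containing 20 μM Ac-DEVD-R110 substrate, and fluorescence (ex 485/em 530 nm) read at 0 and 3 h at room temperature. EC50 from sigmoidal fit of net RFU ratio to control.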

For experiment [2], the system named is Human breast cancer cell line ZR-75-1. In words: Caspase cascade activation assay (N-(Ac-DEVD)-N'-ethoxycarbonyl-R110 fluorogenic substrate) in ZR-75-1 cells. The conditions noted are these: ZR-75-1 cells; for EC50: 24 h incubation, sigmoidal dose-response, read-out: Caspase potency EC50 (nM) ZR-75-1; for Caspase activity (Ratio) ZR-75-1: 24 h incubation with compound, ratio of net RFU (T=3 h) of test compound to control. The format is cell-based. In short, it runs like this:
as §1

Regarding `COc1cc(C2C(C#N)=C(N)Oc3cc(N(C)C)ccc32)cc(Br)c1O` (centres unmarked) [Example 48, 2-Amino-4-(3-bromo-4-hydroxy-5-methoxyphenyl)-3-cyano-7-dimethylamino-4H-chromene], in experiment [1], the “Caspase activity (Ratio) T-47D” value worked out at 10.5. Besides, the EC50 came out at 36.8 nM in experiment [1] (Homo sapiens, T47D, 24 h) and 23.8 nM in experiment [2] (Homo sapiens, ZR-75-1, 24 h). In experiment [2], the “Caspase activity (Ratio) ZR-75-1” value was determined as 6.1.
The like results for `COc1cc(C2C(C#N)=C(N)Oc3cc(N)ccc32)cc(Br)c1O` (centres unmarked) [Example 49, 3-Cyano-4-(3-bromo-4-hydroxy-5-methoxyphenyl)-2,7-diamino-4H-chromene] were, in that order, 10.1, 67.7 nM, 35.9 nM and 5.8.
In the case of `COc1cc(C2C3=CC=C4N=CC=C4C3OC(N)=C2C#N)cc(Br)c1O` (centres unmarked) [Example 50, 2-Amino-4-(3-bromo-4-hydroxy-5-methoxyphenyl)-3-cyano-4H-indolo[4,5-b]pyran], the “Caspase activity (Ratio) T-47D” value in experiment [1] was found to be 10.1. The EC50 was found to be 16.5 nM in experiment [1] (Homo sapiens, T47D, 24 h) and 14.8 nM in experiment [2] (Homo sapiens, ZR-75-1, 24 h). Moreover, the “Caspase activity (Ratio) ZR-75-1” value in experiment [2] was 10.6.
For the compound `COc1cc(C2C3=CC=C4C=CN=C4C3OC(N)=C2C#N)cc(Br)c1O` (centres unmarked) [Example 51, 2-Amino-4-(3-bromo-4-hydroxy-5-methoxyphenyl)-3-cyano-4H-indolo[7,6-b]pyran], the “Caspase activity (Ratio) T-47D” value in experiment [1] stood at 11.5. The EC50 in experiment [1] (Homo sapiens, T47D, 24 h) worked out at 36.8 nM; in experiment [2] (Homo sapiens, ZR-75-1, 24 h), 18.6 nM. The “Caspase activity (Ratio) ZR-75-1” value in experiment [2] came out at 6.7.
For the compound `COc1cc(OC)cc(C2C3=CC=C4C=CN=C4C3OC(N)=C2C#N)c1` (centres unmarked) [Example 52, 2-Amino-3-cyano-4-(3,5-dimethoxyphenyl)-4H-indolo[7,6-b]pyran], the “Caspase activity (Ratio) T-47D” value in experiment [1] was 11.8. Also, the EC50 in experiment [1] (Homo sapiens, T47D, 24 h) was 26 nM; in experiment [2] (Homo sapiens, ZR-75-1, 24 h), 22.7 nM. Besides, in experiment [2], the “Caspase activity (Ratio) ZR-75-1” value is given as 9.9.
The like results for `N#CC1=C(N)OC2C(=CC=C3C=CN=C32)C1c1cccc(C#N)c1` (centres unmarked) [Example 53, 2-Amino-3-cyano-4-(3-cyano-phenyl)-4H-indolo[7,6-b]pyran] were, in that order, 10.1, 79.7 nM, 26.4 nM and 7.0.
In the case of `N#CC1=C(N)Oc2c(ccc3cc[nH]c23)C1c1cccc(C(F)(F)F)c1` (centres unmarked) [Example 54, 2-Amino-3-cyano-4-(3-trifluromethyl-phenyl)-4H-indolo[7,6-b]pyran], in experiment [1], the “Caspase activity (Ratio) T-47D” value was 7.3 and the EC50 is 314 nM. Besides, in experiment [2], the “Caspase activity (Ratio) ZR-75-1” value amounted to 7.5 and the EC50 was 216 nM.
For the compound `Cc1cncc(C2C3=CC=C4C=CN=C4C3OC(N)=C2C#N)c1` (centres unmarked) [Example 55, 2-Amino-3-cyano-4-(5-methyl-pyridin-3-yl)-4H-indolo[7,6-b]pyran], the “Caspase activity (Ratio) T-47D” value in experiment [1] came out at 7.4. The EC50 in experiment [1] (Homo sapiens, T47D, 24 h) turned out to be 15.3 nM; in experiment [2] (Homo sapiens, ZR-75-1, 24 h), 4 nM. The “Caspase activity (Ratio) ZR-75-1” value in experiment [2] was found to be 7.2.
As to `N#CC1=C(N)OC2C3=CC=NC3=CC=C2C1c1ccccc1` (centres unmarked) [Example 56, 2-Amino-3-cyano-4-phenyl-4H-indolo[4,5-b]pyran], the “Caspase activity (Ratio) T-47D” value in experiment [1] is 8.3. Moreover, the concentration for a half-maximal effect (EC50) in experiment [1] (Homo sapiens, T47D, 24 h) turned out to be 252 nM; in experiment [2] (Homo sapiens, ZR-75-1, 24 h), 157 nM. For the same compound, the “Caspase activity (Ratio) ZR-75-1” value in experiment [2] is given as 7.7.
The like results for `N#CC1=C(N)OC2C3=CC=NC3=CC=C2C1c1cncc(C#N)c1` (centres unmarked) [Example 57, 2-Amino-3-cyano-4-(5-cyano-pyridin-3-yl)-4H-indolo[4,5-b]pyran] were, in that order, 7.2, 58 nM, 27.9 nM and 7.3.
The like results for `Cc1cncc(C2C3=CC=C4N=CC=C4C3OC(N)=C2C#N)n1` (centres unmarked) [Example 58, 2-Amino-3-cyano-4-(6-methyl-pyrazin-2-yl)-4H-indolo[4,5-b]pyran] were, in that order, 4.1, 2900 nM, 1630 nM and 7.0.
The like results for `N#CC1=C(N)OC2C3=CC=NC3=CC=C2C1c1cnc2ccccc2n1` (centres unmarked) [Example 59, 2-Amino-3-cyano-4-(quinoxalin-2-yl)-4H-indolo[4,5-b]pyran] were, in that order, 1.1, greater than 10000 nM, greater than 10000 nM and 1.2.
`N#CC1=C(N)OC2C(=CC=C3C=CN=C32)C1c1cncc(C#N)c1` (centres unmarked) [Example 60, 2-Amino-3-cyano-4-(5-cyano-pyridin-3-yl)-4H-indolo[7,6-b]pyran]: the “Caspase activity (Ratio) T-47D” value in experiment [1] is 6.7. Also, the EC50 in experiment [1] (Homo sapiens, T47D, 24 h) was 388 nM; in experiment [2] (Homo sapiens, ZR-75-1, 24 h), 57 nM. Also, the “Caspase activity (Ratio) ZR-75-1” value in experiment [2] worked out at 5.5.
The like results for `Cc1cncc(C2C3=CC=C4C=CN=C4C3OC(N)=C2C#N)n1` (centres unmarked) [Example 61, 2-Amino-3-cyano-4-(6-methyl-pyrazin-2-yl)-4H-indolo[7,6-b]pyran] were, in that order, 4.1, 2900 nM, 1630 nM and 7.0.
The like results for `COc1cc(C2C(C#N)=C(N)Oc3cc(Br)ccc32)cc(Br)c1OC` (centres unmarked) [Example 62, 2-Amino-7-bromo-4-(3-bromo-4,5-dimethoxy-phenyl)-3-cyano-4H-chromene] were, in that order, 6.6, 144 nM, 75.3 nM and 6.0.
The like results for `COc1cc(C2C(C#N)=C(N)Oc3cc(Cl)ccc32)cc(Br)c1OC` (centres unmarked) [Example 63, 2-Amino-4-(3-bromo-4,5-dimethoxy-phenyl)-7-chloro-3-cyano-4H-chromene] were, in that order, 9.1, 147 nM, 114 nM and 10.1.
For the compound `COc1cc(C2C(C#N)=C(N)Oc3c2ccc2[nH]cnc32)cc(Br)c1OC` (centres unmarked) [Example 64, 2-Amino-3-cyano-4-(3-bromo-4,5-dimethoxy-phenyl)-4H-imidazo[4,5-h]chromene], in experiment [1], the “Caspase activity (Ratio) T-47D” value stood at 8.0 and the EC50 is 28.8 nM. Moreover, in experiment [2], the “Caspase activity (Ratio) ZR-75-1” value was found to be 4.8 and the EC50 came to 13.2 nM.
Regarding `COc1cc(C2C(C#N)=C(N)Oc3c2ccc2[nH]c(C)nc32)cc(Br)c1OC` (centres unmarked) [Example 65, 2-Amino-3-cyano-4-(3-bromo-4,5-dimethoxy-phenyl)-8-methyl-4H-imidazo[4,5-h]-chromene], in experiment [1], the “Caspase activity (Ratio) T-47D” value is reported as 1.5 and the EC50 is greater than 1000 nM. In addition, in experiment [2], the “Caspase activity (Ratio) ZR-75-1” value amounted to 6.0 and the EC50 was determined as 570 nM.
The like results for `COc1cc(C2C(C#N)=C(N)Oc3cc(N4CCCC4)ccc32)cc(Br)c1OC` (centres unmarked) [Example 66A, 2-Amino-3-cyano-7-pyrrolidine-4-(3-bromo-4,5-dimethoxyphenyl)-4H-chromene] were, in that order, 3.7, 110 nM, 6.0 and 79.4 nM.
The like results for `COc1cc(C2C(C#N)=C(N)Oc3cc(N4CCNCC4)ccc32)cc(Br)c1OC` (centres unmarked) [Example 66B, 2-Amino-3-cyano-7-piperazine-4-(3-bromo-4,5-dimethoxyphenyl)-4H-chromene] were, in that order, 5.7, 2910 nM, 6.8 and 1470 nM.

What is called EC50 is the concentration giving half of the maximal effect.

The values above are taken from patent US20060035925A1, “SUBSTITUTED 4H-CHROMENES AND ANALOGS AS ACTIVATORS OF CASPASES AND INDUCERS OF APOPTOSIS AND THE USE THEREOF” (Cytovia, Inc., priority 1999, published 2006).
